# How the values were obtained:
# [1] = molecular target: T1, DNA-PKcs (Homo sapiens, UniProt P78527); assay: DNA-PKcs activation in MCF7 cells, immunoblot for phosphorylated Ser2056; assay type: cell-based; details: data not shown
# T1 construct: endogenous in cells; host or cells: MCF7 (ATCC)
# Experimental: (§1) MCF7 cells were obtained from the ATCC. MCF7 cells in G0 were treated with varying doses of H2O2 (FIG. 1). The cells were examined while in the G0 phase of their life cycle to mimic the post-mitotic state of cells in vivo. Low passage MCF-7 cells in G0 were exposed to varying concentrations of H2O2 for 60 minutes with or without Euk-134 or ionizing radiation (5 Gy). For Western blot analysis of DNA-PKcs activation and the activation of other signaling pathways in this study, the following antibodies were used: ACC1 (Cell Signaling); p-ACC1 (Upstate); AMP-activated protein kinase (AMPK; Cell Signaling); p-AMPK(T172) (Cell Signaling); DNA-PK (Lab Vision); p53 (Novocastra); p-DNA-PK(S2056) (Abeam); p-p53(S15) (Cell Signaling); γ-H2AX (Upstate); 53BP1 (Novus Biologicals).
# Activation of DNA-PKcs was visualized by immunoblotting cell lysates with antibody specific for phosphorylated Ser2056, which is autophosphorylated during DNA-PKcs activation (Chen et al., J. Biol. Chem. 280: 14709-15 (2005)) (FIG. 1). […] Instead, H2O2 increased DNA-PKcs activation, and such activation was abrogated by the antioxidant Euk-134 (FIG. 1), a potent synthetic superoxide dismutase and catalase mimetic (Chatterjee, Am. J. Nephrol. 24: 165-77 (2004)).
# MCF7 cells were then cultured in 25 mM glucose. Aliquots of the cultured MCF7 cells were treated with ionizing radiation and/or the DNA-PKcs-specific inhibitor NU7026. Treatment with glucose and ionizing radiation increased DNA-PKcs phosphorylation (data not shown). […] The basal activity of DNA-PKcs in MCF-7 cells in 25 mM glucose was detectable even in the absence of ionizing radiation, but this basal activity was suppressed with the DNA-PKcs-specific inhibitor NU7026 (data not shown).
# [2] = Elevated plus maze test; assay type: in vivo, mice
# Experimental: To evaluate whether SCID mice may also have altered anxiety, fear and depression-like traits, an elevated plus maze test was performed, which is a commonly used test to quantify the level of anxiety- and depression-like traits in rodents (Pellow et al. J. Neurosci. Methods 14: 149-67 (1985)). The elevated plus maze has narrow runways that are located 16 inches above the surface that are either closed or open. The animal is placed in the center of an elevated 4-arm maze in which 2 arms are open and 2 are enclosed. Mice generally avoid the open arms because of their fear of open space and height. The elevated plus-maze is used to determine the rodent's response to a potentially dangerous environment and anxiety-related behavior is measured by the degree to which the rodent avoids the unenclosed arms of the maze. Increase in the number of times the animal enters the open arm and the amount of time spent in the open arms reflect decreased anxiety and depression.
# (§2) Elevated plus maze tests, light/dark chamber tests, forced swim tests (FST) and hot plate tests were performed as described earlier.
# [3] = Light/dark chamber test; assay type: in vivo; details: treated vs untreated mice
# Experimental: WT and SCID mice were tested in another anxiety test using the light-dark box (Bourin and Hascoet, Eur J Pharmacol 463:55 (2003)). The light-dark box test is based on the innate aversion of rodents to brightly illuminated areas and on the spontaneous exploratory behavior of rodents in response to a mildly stressful situation, that is, a novel environment and light (Crawley and Goodwin Pharmacol Biochem Behav 13:167, 1980). In the light-dark test, increased activity in the light compartment indicates decreased anxiety.
# as §2
# [4] = test system: AMPK; assay: AMPK activation in quiescent MCF7 cells; assay type: cell-based; details: 1 and 2.5 μM, FIG. 20
# Experimental: as §1
# (§3) ENLITEN ATP assay kit (Promega) and ApoGlow assay kit (Cambrex), respectively. […] To determine whether the AMPK-inhibitory function of DNA-PKcs is cell autonomous, quiescent MCF7 cells were treated with 1 and 2.5 μM NU7026.
# [5] = test system: MCF7 cells; assay: ATP level in MCF7 cells; assay type: cell-based; details: 1 and 2.5 μM, FIG. 20
# Experimental: The level of ATP and the ADP/ATP ratio in cells were determined using an
# as §3
# [6] = test system: AMPK; assay: AMPK activation in C2C12 cells; assay type: cell-based
# Experimental: Expression of PGC-1α (FIGS. 12-14 and 49) can be induced by multiple proteins, including the energy sensor AMPK and the longevity protein Sirt1. Nutrient deprivation stimulates AMPK activity due to increasing AMP/ATP ratios. AMPK is activated by LKB1 kinase. Alternately, AMPK is also activated by a Ca^2+/calmodulin-dependent protein kinase (CaMK) without AMP. In order to test which upstream kinase plays a major role for AMPK activation after DNA-PKcs inhibition, C2C12 cells were treated with NU7026 in the presence or absence of a known CaMK chemical inhibitor ST0609. […] This raised the possibility that DNA-PKcs suppresses LKB1 and subsequently AMPK.
# [7] = test system: AMPK; assay: AMPK activation in mouse embryonic fibroblasts (wild-type, DNA-PK null, LKB1-null); assay type: cell-based
# Source text: The hypothesis that DNA-PKcs inhibition/deficiency induces activation of the LKB1-AMPK pathway was further tested using DNA-PK^−/− (null) mouse embryonic fibroblasts (MEFs) and LKB1-null MEFs treated with NU7026.
# [8] = test system: PI3K; details: related kinase, selectivity; cited from earlier work
# [9] = molecular target: ATM (Homo sapiens, UniProt Q13315); details: related kinase, selectivity; cited from earlier work
# [10] = test system: leukemic cells; details: Willmore et al. Blood 103:4659, 2004; cited from earlier work
# Chain of ATM (Q13315 whole entry, species assumed): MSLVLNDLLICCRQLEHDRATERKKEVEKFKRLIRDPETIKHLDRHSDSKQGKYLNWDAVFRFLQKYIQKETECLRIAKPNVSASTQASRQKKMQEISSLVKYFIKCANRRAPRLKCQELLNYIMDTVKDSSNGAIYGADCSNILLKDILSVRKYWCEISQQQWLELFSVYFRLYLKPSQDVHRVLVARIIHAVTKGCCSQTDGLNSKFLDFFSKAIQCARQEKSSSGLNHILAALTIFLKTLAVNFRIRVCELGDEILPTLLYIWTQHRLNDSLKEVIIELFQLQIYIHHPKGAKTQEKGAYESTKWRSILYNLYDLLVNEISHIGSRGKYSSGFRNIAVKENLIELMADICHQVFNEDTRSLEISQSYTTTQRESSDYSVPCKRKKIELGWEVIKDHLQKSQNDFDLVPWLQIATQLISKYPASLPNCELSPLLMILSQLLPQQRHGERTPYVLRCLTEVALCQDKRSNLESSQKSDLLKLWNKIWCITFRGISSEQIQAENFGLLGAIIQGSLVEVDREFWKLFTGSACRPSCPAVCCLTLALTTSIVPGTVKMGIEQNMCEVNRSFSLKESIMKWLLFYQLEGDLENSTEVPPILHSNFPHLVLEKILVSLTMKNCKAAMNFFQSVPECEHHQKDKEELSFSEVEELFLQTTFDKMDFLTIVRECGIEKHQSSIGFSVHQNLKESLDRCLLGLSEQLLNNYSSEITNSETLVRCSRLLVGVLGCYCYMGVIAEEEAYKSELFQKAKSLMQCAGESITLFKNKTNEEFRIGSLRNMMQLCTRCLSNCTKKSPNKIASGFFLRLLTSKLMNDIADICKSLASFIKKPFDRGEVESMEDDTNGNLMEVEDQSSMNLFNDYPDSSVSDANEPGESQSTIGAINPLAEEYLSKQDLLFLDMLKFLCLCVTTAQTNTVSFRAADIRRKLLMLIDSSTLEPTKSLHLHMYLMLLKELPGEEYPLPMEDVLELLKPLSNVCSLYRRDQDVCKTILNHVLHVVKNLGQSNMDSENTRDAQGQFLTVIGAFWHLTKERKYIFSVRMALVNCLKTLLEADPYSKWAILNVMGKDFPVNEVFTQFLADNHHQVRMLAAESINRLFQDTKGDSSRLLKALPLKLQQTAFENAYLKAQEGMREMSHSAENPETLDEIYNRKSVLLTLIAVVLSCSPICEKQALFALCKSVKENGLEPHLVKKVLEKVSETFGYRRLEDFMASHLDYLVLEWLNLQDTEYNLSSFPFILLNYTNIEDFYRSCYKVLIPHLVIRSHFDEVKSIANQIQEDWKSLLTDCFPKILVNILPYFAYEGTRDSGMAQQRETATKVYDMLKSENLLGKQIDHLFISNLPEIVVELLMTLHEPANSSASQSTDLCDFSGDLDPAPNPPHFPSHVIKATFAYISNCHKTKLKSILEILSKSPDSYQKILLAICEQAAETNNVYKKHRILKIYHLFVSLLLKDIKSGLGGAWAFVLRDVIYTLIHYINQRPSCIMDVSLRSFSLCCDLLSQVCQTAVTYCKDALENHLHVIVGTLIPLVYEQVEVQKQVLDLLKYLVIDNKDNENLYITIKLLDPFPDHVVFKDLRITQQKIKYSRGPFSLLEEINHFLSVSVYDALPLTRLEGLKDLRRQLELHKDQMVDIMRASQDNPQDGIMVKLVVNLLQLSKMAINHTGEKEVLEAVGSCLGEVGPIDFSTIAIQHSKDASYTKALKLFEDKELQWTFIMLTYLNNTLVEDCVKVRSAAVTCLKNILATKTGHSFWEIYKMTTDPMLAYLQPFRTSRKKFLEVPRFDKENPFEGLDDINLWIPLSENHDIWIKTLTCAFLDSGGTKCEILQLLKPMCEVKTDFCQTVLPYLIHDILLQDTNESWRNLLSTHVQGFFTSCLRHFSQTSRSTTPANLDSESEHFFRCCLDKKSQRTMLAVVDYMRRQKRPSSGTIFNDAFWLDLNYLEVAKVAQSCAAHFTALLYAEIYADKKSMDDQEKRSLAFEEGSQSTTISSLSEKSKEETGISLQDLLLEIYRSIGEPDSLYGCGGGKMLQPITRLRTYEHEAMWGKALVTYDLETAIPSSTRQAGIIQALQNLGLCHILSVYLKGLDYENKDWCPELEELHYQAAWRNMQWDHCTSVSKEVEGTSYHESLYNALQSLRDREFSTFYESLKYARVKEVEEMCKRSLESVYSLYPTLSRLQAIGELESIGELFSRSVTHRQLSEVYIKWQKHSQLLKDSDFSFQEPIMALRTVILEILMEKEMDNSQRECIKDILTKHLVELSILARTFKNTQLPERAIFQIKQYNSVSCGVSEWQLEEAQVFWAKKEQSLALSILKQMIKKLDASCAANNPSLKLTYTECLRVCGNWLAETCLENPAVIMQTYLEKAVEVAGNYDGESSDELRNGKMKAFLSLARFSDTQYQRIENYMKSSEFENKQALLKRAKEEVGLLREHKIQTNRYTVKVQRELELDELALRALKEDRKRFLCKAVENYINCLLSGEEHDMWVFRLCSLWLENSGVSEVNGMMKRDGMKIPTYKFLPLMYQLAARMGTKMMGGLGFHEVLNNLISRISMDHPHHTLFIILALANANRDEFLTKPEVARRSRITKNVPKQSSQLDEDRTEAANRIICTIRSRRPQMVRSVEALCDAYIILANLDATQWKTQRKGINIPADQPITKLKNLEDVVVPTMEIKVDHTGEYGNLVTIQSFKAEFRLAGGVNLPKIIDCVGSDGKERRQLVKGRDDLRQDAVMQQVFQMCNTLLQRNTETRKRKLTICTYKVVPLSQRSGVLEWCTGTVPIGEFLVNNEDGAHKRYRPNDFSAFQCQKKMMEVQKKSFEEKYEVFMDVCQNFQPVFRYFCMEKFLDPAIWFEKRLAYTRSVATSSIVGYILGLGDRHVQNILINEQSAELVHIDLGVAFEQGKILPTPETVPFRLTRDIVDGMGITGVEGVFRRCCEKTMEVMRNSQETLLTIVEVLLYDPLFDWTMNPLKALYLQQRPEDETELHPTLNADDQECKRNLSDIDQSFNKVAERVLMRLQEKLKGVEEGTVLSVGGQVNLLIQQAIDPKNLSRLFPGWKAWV
structure (smiles),measurement,setting,value
"O=c1cc(N2CCOCC2)oc2c1ccc1ccccc12 [NU7026, 2-(morpholin-4-yl)-benzo[h]chomen-4-one]",induction of DNA-PKcs activation by ionizing radiation,[1]; MCF7 cells in 25 mM glucose,able to depress the induction of DNA-PKcs activation
same,basal activity of DNA-PKcs,"[1]; MCF-7 cells in 25 mM glucose, no ionizing radiation",suppressed
same,levels of anxiety/depression,"[2]; elevated plus maze and light/dark chamber tests, FIGS. 47 and 48",dramatically lower levels of anxiety/depression
same,time in closed arm of the elevated plus maze,[2]; treated vs untreated mice,less time in a closed arm
same,time in open arm of the elevated plus maze,[2]; treated vs untreated mice,more time in the open arm
same,time in the dark compartment,[3],less time in the dark compartment
same,time in the light compartment,[3],more time in the light compartment
same,time to enter the light chamber,[3],quicker to enter the light chamber
same,AMPK activation,[4],activated AMPK
same,ATP levels,[5],without significantly affecting ATP levels
same,AMPK activation,"[6]; C2C12 cells, absence of STO609, FIG. 50",activated
same,AMPK activation,"[6]; C2C12 cells, presence of CaMK inhibitor STO609, FIG. 50",still observed
same,AMPK activation,"[6]; differentiated C2C12 myoblasts, data not shown",also activated AMPK
same,AMPK activation,"[7]; DNA-PK−/− MEFs, FIG. 52A",significantly enhanced
same,AMPK activation,"[7]; LKB1-null MEFs, FIG. 52B",not in LKB1-null MEFs
same,AMPK activation,"[7]; wild-type MEFs, FIG. 52",activated
same,IC50,[8],13 µM
same,IC50,[9],> 100 µM
same,sensitization to topoisomerase II inhibitors,[10],sensitize leukemic cells to topoisomerase II inhibitors
